Source: PubChem BioAssay AID1259411 (Chemical Carcinogenesis Research Information System (CCRIS), 2018)
Calls of active or inactive are those of the source. How the calls were made is not given here.

Tested on: rodent carcinogenicity bioassays, tumor incidence
Assay: CCRIS carcinogenicity studies
Details: Route: ORAL
Outline: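 Archive of carcinogenicity, mutagenicity, tumor promotion and tumor inhibition results drawn from journals, NCI reports and other sources, expert-reviewed; covers 1985-2011 and is no longer updated.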

Row | Structure (SMILES) | carcinogen call (Species: MOUSE, Strain/Sex: B6C3F1/FEMALE, Dose: 0, 6000, 12000 PPM IN DIET FOR 103 WK (STUDY DURATION: 105-106 WK), Dose: 0, 6000, 12000 PPM IN DIET FOR 103 WK (STUDY DURATION: 105-106 WK)) | carcinogen call (Species: MOUSE, Strain/Sex: B6C3F1/MALE, Dose: 0, 6000, 12000 PPM IN DIET FOR 103 WK (STUDY DURATION: 104-106 WK), Dose: 0, 6000, 12000 PPM IN DIET FOR 103 WK (STUDY DURATION: 104-106 WK)) | carcinogen call (Species: RAT, Strain/Sex: F344/FEMALE, Dose: 0, 6000, 12000, 24000 PPM IN DIET FOR DURATION OF STUDY (STUDY DURATION: 104 WK), Dose: 0, 6000, 12000, 24000 PPM IN DIET FOR DURATION OF STUDY (STUDY DURATION: 104 WK), Tumor Site: Type of Lesion: PANCREAS: ACINAR CELL ADENOMA, URINARY BLADDER: TRANSITIONAL EPITHELIAL PAPILLOMA) | carcinogen call (Species: RAT, Strain/Sex: F344/FEMALE, Dose: 0, 24000 PPM IN DIET FOR 105 WK, CONTROL GROUP DIET RESTRICTED TO LIMIT WEIGHTS TO 85% OF AD LIBITUM-FED GROUP (STUDY DU) | carcinogen call (Species: RAT, Strain/Sex: F344/FEMALE, Dose: 0, 24000 PPM IN DIET FOR 106 WK, CONTROL AND DOSED GROUP FED AD LIBITUM (STUDY DURATION: 2 YR)) | carcinogen call (Species: RAT, Strain/Sex: F344/FEMALE, Dose: 0, 24000 PPM IN DIET FOR 106 WK, CONTROL GROUP WAS WEIGHT-MATCHED TO DOSED GROUP (STUDY DURATION: 2 YR)) | carcinogen call (Species: RAT, Strain/Sex: F344/MALE, Dose: 0, 3000, 6000, 12000 PPM IN DIET FOR DURATION OF STUDY (STUDY DURATION: 104 WK), Dose: 0, 3000, 6000, 12000 PPM IN DIET FOR DURATION OF STUDY (STUDY DURATION: 104 WK), Tumor Site: Type of Lesion: PANCREAS: ACINAR CELL ADENOMA, ACINAR CELL ADENOMA OR CARCINOMA) | carcinogen call (Species: RAT, Strain/Sex: F344/MALE, Dose: 0, 12000 PPM IN DIET FOR 105 WK, CONTROL AND DOSED GROUPS FED AD LIBITUM (STUDY DURATION 2 YR), Tumor Site: Type of Lesion: PANCREAS(ACINUS): ADENOMA) | carcinogen call (Species: RAT, Strain/Sex: F344/MALE, Dose: 0, 12000 PPM IN DIET FOR 105 WK, CONTROL GROUP DIET RESTRICTED TO LIMIT WEIGHTS TO 85% OF AD LIBITUM-FED GROUPS (STUDY D) | carcinogen call (Species: RAT, Strain/Sex: F344/MALE, Dose: 0, 12000 PPM IN DIET FOR 105 WK, CONTROL GROUP WAS WEIGHT-MATCHED TO DOSED GROUP (STUDY DURATION: 2 YR), Tumor Site: Type of Lesion: PANCREAS(ACINUS): ADENOMA) | carcinogen call (Species: RAT, Strain/Sex: F344/MALE, Dose: 0, 12000 PPM IN DIET FOR 128 WK, CONTROL GROUP DIET RESTRICTED TO LIMIT WEIGHTS TO 85% OF AD LIBITUM-FED GROUP (STUDY DU) | carcinogen call (Species: MOUSE, Tumor Site: Type of Lesion: THYROID GLAND)
1 | CCCCOC(=O)c1ccccc1C(=O)OCc1ccccc1 | inactive; negative | inactive; negative | equivocal | inactive; negative | inactive; negative | inactive; negative | active; positive | active; positive | inactive; negative | active; positive | inactive; negative | –
2 | CC(C)NCC(O)c1ccc2ccccc2c1 (configuration not stated) | – | – | – | – | – | – | – | – | – | – | – | active; positive
